Data reported in patent publication US20210269451A1, “PYRIDINYL HETEROCYCLYL COMPOUNDS FOR THE TREATMENT OF AUTOIMMUNE DISEASE” (Hoffmann-La Roche Inc., priority 2018, published 2021).

What was measured:
hTLR9 = target: T1, hTLR9 (Homo sapiens, UniProt Q9NR96); design: host or cells: HEK; settings: disclosed in US20150105370; read-out: HEK/hTLR9 IC50; cited from earlier work
T1 sequence (Q9NR96 26-1032): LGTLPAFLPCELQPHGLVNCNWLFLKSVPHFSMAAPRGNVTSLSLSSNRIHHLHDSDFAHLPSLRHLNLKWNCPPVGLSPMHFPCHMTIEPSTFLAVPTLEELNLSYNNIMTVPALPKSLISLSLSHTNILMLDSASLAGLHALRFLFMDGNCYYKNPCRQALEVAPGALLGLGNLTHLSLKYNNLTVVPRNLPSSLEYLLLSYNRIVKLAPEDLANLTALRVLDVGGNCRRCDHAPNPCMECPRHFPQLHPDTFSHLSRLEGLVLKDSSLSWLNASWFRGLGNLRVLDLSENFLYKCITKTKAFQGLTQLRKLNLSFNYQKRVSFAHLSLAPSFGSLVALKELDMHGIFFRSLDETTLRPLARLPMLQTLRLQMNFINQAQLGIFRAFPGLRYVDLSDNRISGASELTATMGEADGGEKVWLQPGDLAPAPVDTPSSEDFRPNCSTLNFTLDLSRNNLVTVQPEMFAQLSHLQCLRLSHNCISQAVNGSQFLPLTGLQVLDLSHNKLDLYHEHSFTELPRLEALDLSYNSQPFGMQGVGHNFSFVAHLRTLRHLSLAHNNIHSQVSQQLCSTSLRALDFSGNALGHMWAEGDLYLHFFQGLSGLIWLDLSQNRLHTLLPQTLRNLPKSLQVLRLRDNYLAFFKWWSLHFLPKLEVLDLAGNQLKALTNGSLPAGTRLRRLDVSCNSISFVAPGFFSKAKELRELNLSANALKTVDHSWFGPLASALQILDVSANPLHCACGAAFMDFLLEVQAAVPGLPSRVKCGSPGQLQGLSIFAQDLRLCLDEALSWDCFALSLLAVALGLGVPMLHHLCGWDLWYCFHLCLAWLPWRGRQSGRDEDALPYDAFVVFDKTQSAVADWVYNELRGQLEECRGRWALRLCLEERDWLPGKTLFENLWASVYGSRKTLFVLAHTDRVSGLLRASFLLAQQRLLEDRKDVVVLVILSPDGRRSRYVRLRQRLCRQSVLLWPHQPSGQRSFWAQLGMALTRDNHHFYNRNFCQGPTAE

hERG channel = target: T2, hERG channel (Homo sapiens, UniProt Q12809); assay: hERG channel inhibition assay (patch-clamp, CHOhERG cells); assay type: cell-based; settings: safety ratio;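 on hERG IC20/TLR7 IC50: ratio above 30 indicates an adequate safety window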;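 on hERG IC20/TLR8 IC50: ratio above 30 indicates an adequate safety window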
T2 construct: expressed in transfected cells; host or cells: CHO (Chinese hamster ovary), CHOhERG
T2 sequence (Q12809 whole entry): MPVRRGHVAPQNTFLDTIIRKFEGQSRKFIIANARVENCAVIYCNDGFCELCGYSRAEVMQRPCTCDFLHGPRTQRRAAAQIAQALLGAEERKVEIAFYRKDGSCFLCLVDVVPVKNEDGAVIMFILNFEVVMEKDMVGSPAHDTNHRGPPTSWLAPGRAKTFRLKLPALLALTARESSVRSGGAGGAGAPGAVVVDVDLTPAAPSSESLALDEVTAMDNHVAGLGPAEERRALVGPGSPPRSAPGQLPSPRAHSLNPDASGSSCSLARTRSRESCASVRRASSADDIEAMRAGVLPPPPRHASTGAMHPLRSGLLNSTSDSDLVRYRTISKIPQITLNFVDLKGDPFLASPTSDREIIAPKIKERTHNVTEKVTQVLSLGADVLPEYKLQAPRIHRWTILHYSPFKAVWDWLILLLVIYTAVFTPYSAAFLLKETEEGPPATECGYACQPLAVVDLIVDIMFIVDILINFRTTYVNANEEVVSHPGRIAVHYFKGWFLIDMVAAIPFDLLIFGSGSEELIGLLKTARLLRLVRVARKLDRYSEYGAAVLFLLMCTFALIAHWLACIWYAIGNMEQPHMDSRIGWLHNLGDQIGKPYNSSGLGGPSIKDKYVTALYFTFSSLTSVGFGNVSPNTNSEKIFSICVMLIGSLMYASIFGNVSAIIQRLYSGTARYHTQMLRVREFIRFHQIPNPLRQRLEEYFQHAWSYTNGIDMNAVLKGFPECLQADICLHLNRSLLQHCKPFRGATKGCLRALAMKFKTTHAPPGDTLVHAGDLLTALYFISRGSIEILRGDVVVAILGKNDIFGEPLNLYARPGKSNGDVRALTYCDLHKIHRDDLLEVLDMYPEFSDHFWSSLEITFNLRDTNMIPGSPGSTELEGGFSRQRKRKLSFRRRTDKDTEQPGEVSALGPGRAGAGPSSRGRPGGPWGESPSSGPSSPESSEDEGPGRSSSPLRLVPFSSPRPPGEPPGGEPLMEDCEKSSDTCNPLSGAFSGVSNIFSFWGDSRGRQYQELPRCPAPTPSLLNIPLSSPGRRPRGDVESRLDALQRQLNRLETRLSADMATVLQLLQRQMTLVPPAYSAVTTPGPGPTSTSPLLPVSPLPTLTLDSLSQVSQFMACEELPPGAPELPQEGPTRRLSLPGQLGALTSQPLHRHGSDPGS
Protocol: hERG channel inhibition assay:
The hERG K^+ channels were cloned in humans and stably expressed in a CHO (Chinese hamster ovary) cell line. CHOhERG cells were used for patch-clamp (voltage-clamp, whole-cell) experiments. Cells were stimulated by a voltage pattern to activate hERG channels and conduct IKhERG currents (rapid delayed outward rectifier potassium current of the hERG channel). After the cells were stabilized for a few minutes, the amplitude and kinetics of IKhERG were recorded at a stimulation frequency of 0.1 Hz (6 bpm). Thereafter, the test compound was added to the preparation at increasing concentrations. For each concentration, an attempt was made to reach a steady-state effect, usually, this was achieved within 3-10 min at which time the next highest concentration was applied. The amplitude and kinetics of IKhERG are recorded in each concentration of the drug which were compared to the control values (taken as 100%). (references: Redfern W S, Carlsson L, Davis A S, Lynch W G, MacKenzie I, Palethorpe S, Siegl P K, Strang I, Sullivan A T, Wallis R, Camm A J, Hammond T G. 2003; Relationships between preclinical cardiac electrophysiology, clinical QT interval prolongation and torsade de pointes for a broad range of drugs: evidence for a provisional safety margin in drug development. Cardiovasc. Res. 58:32-45, Sanguinetti M C, Tristani-Firouzi M. 2006; hERG potassium channels and cardiac arrhythmia. Nature 440:463-469, Webster R, Leishman D, Walker D. 2002; Towards a drug concentration effect relationship for QT prolongation and torsades de pointes. Curr. Opin. Drug Discov. Devel. 5:116-26).

[1] = Human microsome stability assay; assay type: in vitro ADME; settings: 1 μM test compound, 0.5 mg/mL liver microsomal protein, 37° C.
Protocol: Human microsome stability assay
The human microsomal stability assay is used for early assessment of metabolic stability of a test compound in human liver microsomes.
Human liver microsomes (Cat.NO.: 452117, Corning, USA;Cat.NO.:H2610, Xenotech, USA) were preincubated with test compound for 10 minutes at 37° C. in 100 mM potassium phosphate buffer, pH 7.4. The reactions were initiated by adding NADPH regenerating system. The final incubation mixtures contained 1 μM test compound, 0.5 mg/mL liver microsomal protein, 1 mM MgCl2, 1 mM NADP, 1 unit/mL isocitric dehydrogenase and 6 mM isocitric acid in 100 mM potassium phosphate buffer, pH 7.4. After incubation times of 0, 3, 6, 9, 15 and 30 minutes at 37° C., 300 μL of cold acetonitrile (including internal standard) was added to 100 μL incubation mixture to terminate the reaction. Following precipitation and centrifugation, the amount of compound remaining in the samples were determined by LC-MS/MS. Controls of no NADPH regenerating system at zero and 30 minutes were also prepared and analyzed.

CYP2D6 = target: T3, CYP2D6 (Homo sapiens, UniProt P10635); assay: CYP inhibition assay in human liver microsome; assay type: in vitro ADME; settings: human liver microsomes, probe dextromethorphan, dextromethorphan substrate, percentage inhibition <0: not or weak inhibitor, read-out: CYP 2D6 inhibition %@10 μM
T3 construct: tissue BD-Gentest 452117; host or cells: human liver microsomes
T3 sequence (P10635 whole entry): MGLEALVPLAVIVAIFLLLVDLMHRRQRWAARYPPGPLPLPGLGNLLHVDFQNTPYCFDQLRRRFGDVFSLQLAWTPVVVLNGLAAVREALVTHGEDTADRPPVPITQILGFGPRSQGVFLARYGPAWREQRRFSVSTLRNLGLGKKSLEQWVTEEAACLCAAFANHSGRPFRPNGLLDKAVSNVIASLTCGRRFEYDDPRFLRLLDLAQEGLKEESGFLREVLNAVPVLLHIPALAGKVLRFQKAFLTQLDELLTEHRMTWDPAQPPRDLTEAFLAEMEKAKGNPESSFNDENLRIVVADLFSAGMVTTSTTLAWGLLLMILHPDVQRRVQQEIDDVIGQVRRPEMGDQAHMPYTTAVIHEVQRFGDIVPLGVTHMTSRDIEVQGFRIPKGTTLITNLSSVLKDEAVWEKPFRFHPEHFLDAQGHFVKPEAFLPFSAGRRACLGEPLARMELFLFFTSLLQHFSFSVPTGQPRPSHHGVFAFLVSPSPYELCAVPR
Protocol: The compounds would be desirable to have minimal DDI liabilities. Therefore, the effects of compounds of formula (I) or (Ia) on CYP2D6 are determined.
This is a high throughput screening assay used for assessment of reversible inhibition of CYP2D6 activity of test compounds in human liver microsome (HLM) in early discovery stage.
10 mM DMSO stock solutions of test compounds were diluted in DMSO to generate 2 mM intermediate stock solution. 250 nL of intermediate stock solution were transferred in duplicate into 3 separate 384 well microtitre plates (assay-ready plates). A mixture of HLM and each substrate was made up. 45 μL of HLM substrate mix was then transferred to each well of an assay ready plate and mixed. The negative (solvent) and positive control (standard inhibitor for CYP 2D6) were included in each assay ready plate. The assay ready plate was warmed to 37° C. in an incubator over 10 minutes. 5 μL pre-warmed NADPH regenerating system was added to each incubation well to start the reaction. Final incubation volume was 50 μL. The assay plate then was placed back in the 37° C. incubator. After 10 minutes incubation, incubates were quenched by addition of 50 μL 100% acetonitrile containing internal standards (20 ng/mL D3-Dextrorphan). The supernatants were collected for RapidFire/MS/MS analysis.
RapidFire online solid phase extraction/sample injection system (Agilent) coupled with API4000 triple quadrupole mass spectrometer (AB Sciex) were used for sample analysis. The mobile phase composed of acetonitrile and water supplemented with 0.1% formic acid. A C4 solid phase extraction cartridge is used for sample separation. MS detection is achieved in positive ion MRM mode.
Data analysis Peak areas for substrate, metabolite and internal standard are determined using the RapidFire integrator software (version 3.6.12009.12296). Peak area ratios (PAR) of metabolite and internal standard (stable-labelled metabolite) are then calculated. The measurement window for each experiment is then defined:
PAR (0% activity), average PAR for all incubations containing concentrated inhibitor; Par (100% activity), average PAR for all incubations containing no inhibitor (DMSO controls);
% Activity (test inhibitor)=
=[PAR(test inhibitor)-PAR(0% activity)]/[PAR(100% activity)-PAR(0% activity)];
% Inhibition (test inhibitor)=100-% Activity (test inhibitor).

Clearance of Human microsome [1]	Compound	IC50 (hTLR9)	hERG IC20/TLR7 IC50 (hERG channel)	hERG IC20/TLR9 IC50 (hERG channel)	other results
	C[C@@H]1CN(c2ccc(C#N)c3ncccc23)C[C@H](CN2CC(NS(=O)(=O)c3ccc(F)cc3)C2)O1 [ER-894155]	> 10 µM			
	C[C@@H]1CN(c2ccc(C#N)c3ncccc23)C[C@H](CN2CCN(c3ccc(Cl)cc3)CC2)O1 [Example R2, 5-[(2S,6R)-2-[[4-(4-chlorophenyl)piperazin-1-yl]methyl]-6-methyl-morpholin-4-yl]quinoline-8-carbonitrile, reference compound]		1.3	0.0	hERG IC20/TLR8 IC50 (hERG channel): 0.8
	C[C@@H]1CN(c2ccc(C#N)c3ncccc23)C[C@H](CN2CCN(c3ccccc3)CC2)O1 [ER-887258, reference compound]	> 2 µM	8.1	0.3	
	C[C@@H]1CN(c2ccc(C#N)c3ncccc23)C[C@H](CN2CCN(c3ccccn3)CC2)O1 [ER-888285, reference compound]	> 2 µM	8.4	0.5	
7.61 mL/min/kg	Cc1cc(N2C[C@@H](O)[C@H](NC[C@H]3CN(c4ccc(C#N)c5ncccc45)C[C@@H](C)O3)C2)cc(CO)n1 [Example 31]				
	Cc1nn(C)cc1S(=O)(=O)NC1CCN(C[C@H]2CN(c3ccc(C#N)c4ncccc34)C[C@@H](C)O2)CC1 [ER-894160]	> 10 µM			
10.84 mL/min/kg	COc1ccc(N2CCN(C[C@H]3CN(c4ccc(C#N)c5ncccc45)C[C@@H](C)O3)CC2)cc1 [Example R1, 5-[(2S,6R)-2-[[4-(4-methoxyphenyl)piperazin-1-yl]methyl]-6-methyl-morpholin-4-yl]quinoline-8-carbonitrile, reference compound]		9.3	0.1	hERG IC20/TLR8 IC50 (hERG channel): 6.2
7.72 mL/min/kg	Cc1cc(N2CC[C@H](NC[C@H]3CN(c4ccc(C#N)c5ncccc45)C[C@@H](C)O3)[C@@H](O)C2)cc(CO)n1 [Example 26]				
	C[C@@H]1CN(c2ccc(C#N)c3ncccc23)C[C@H](CN2CC[C@@H](NC(=O)c3ccccc3)C2)O1 [ER-894544]	> 6.2 µM			
	Cc1cc(N2CCN(C[C@H]3CN(c4ccc(C#N)n5nccc45)C[C@@H](C)O3)C(Cc3ccccc3)C2)cc(C)n1 (some centres unmarked) [Example 39]				inhibition at 10 min, 10 μM (CYP2D6): 7.5%
7.67 mL/min/kg	Cc1cc(N2CC[C@@H](O)[C@H](NC[C@H]3CN(c4ccc(C#N)c5ncccc45)C[C@@H](C)O3)C2)cc(CO)n1 [Example 27]				
	C[C@@H]1CN(c2ccc(C#N)c3ncccc23)C[C@H](CN2CCN(c3ccncc3)CC2)O1 [ER-888286, reference compound]	> 2 µM	0.3	0.2	
